Reference: ChEMBL document CHEMBL6096668, “Design and functional studies of xylene-based cyclic mimetics of SOCS1 protein” (Eur J Med Chem, 2025)
Numbered stars: 1 amine (or outer) side, 2 acyl side, 3 side chain; on linkers, the order of the positions; unused ones are H or OH. Bridge positions count the residues as written; N and C are the ends. Square brackets hold non-standard residues; d marks the D form. Peptide text beside a SMILES is read from it. * marks the point of attachment. 1Nal = N[C@@H](Cc1cccc2ccccc12)C(=O)O; TBMB = c1c(C[*:1])cc(C[*:3])cc1C[*:2]; Acm = CC(=O)NC*

Assays:
[1] = target: T1, Tyrosine-protein kinase JAK2 (Homo sapiens, UniProt O60674); experiment: Binding affinity to his-tagged JAK2 (826 to 1132 residues) (unknown origin) assessed as dissociation constant incubated for 30 mins by MST analysis
[2] = target: T1, Tyrosine-protein kinase JAK2; experiment: Inhibition of JAK2 (unknown origin) using srctide as substrate preincubated with compound for 1 hr followed by substrate addition and measured after 15 mins in presence of ATP by LC-MS analysis
[3] = Stability of the compound in fetal bovine serum measured after 30 h by RP-HPLC analysis; conditions: cattle

T1 sequence (O60674 whole entry, the tested form may be a part): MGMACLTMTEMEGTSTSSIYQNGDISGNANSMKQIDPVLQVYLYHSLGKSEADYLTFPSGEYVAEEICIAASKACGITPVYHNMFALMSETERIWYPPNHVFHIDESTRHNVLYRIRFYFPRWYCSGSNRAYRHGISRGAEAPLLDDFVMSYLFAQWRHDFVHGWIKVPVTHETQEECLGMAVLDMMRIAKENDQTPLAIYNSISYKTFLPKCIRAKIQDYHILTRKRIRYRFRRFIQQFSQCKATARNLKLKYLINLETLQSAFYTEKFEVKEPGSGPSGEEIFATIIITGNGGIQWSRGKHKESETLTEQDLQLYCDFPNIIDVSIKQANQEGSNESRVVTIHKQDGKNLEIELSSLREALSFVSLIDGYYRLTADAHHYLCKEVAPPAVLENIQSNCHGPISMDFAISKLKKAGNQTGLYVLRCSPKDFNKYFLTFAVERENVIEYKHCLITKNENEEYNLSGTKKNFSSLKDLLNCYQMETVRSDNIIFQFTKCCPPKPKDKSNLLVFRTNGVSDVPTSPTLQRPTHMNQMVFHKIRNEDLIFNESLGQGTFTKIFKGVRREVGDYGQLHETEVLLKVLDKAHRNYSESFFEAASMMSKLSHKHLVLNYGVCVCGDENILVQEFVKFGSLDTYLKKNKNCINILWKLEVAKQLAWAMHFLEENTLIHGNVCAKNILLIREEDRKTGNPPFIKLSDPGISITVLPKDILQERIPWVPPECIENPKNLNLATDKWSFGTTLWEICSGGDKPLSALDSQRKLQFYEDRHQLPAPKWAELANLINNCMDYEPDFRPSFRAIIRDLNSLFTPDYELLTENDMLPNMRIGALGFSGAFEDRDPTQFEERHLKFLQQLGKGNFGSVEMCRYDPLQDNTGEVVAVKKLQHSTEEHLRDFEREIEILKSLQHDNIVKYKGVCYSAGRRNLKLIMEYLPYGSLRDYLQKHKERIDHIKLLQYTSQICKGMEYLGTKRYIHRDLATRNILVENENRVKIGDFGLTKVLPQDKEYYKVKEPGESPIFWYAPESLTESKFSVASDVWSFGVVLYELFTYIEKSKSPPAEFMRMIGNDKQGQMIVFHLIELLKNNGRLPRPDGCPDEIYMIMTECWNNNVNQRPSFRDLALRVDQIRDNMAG

| Kd [1] | IC50 [2] | Stability [3] | SMILES |
| --- | --- | --- | --- |
| 6.8 µM | 2.2 µM | – | CC(=O)NCSC[C@@H]1NC(=O)[C@H]([C@@H](C)O)NC(=O)[C@H](NC(C)=O)CSCc2cccc(c2)CSC[C@@H](C(=O)N[C@@H](Cc2cnc[nH]2)C(N)=O)NC(=O)[C@H](CCCNC(=N)N)NC(=O)[C@H](Cc2cccc3ccccc23)NC(=O)[C@H]([C@@H](C)O)NC(=O)[C@H](CCC(N)=O)NC(=O)[C@H](CCCNC(=N)N)NC1=O |
| 130 µM | 100 µM | – | CC(=O)NCSC[C@@H]1NC(=O)[C@H]([C@@H](C)O)NC(=O)[C@@H](NC(C)=O)CSCc2cc3cc(c2)CSC[C@H](NC(=O)[C@H](CCCNC(=N)N)NC1=O)C(=O)N[C@@H]([C@@H](C)O)C(=O)N[C@@H](Cc1cccc2ccccc12)C(=O)N[C@@H](CCCNC(=N)N)C(=O)N[C@H](C(=O)N[C@@H](Cc1cnc[nH]1)C(N)=O)CSC3 (Ac-CTC(Acm)RCT[1Nal]RCH-NH2; linker 1-5-9 via TBMB) |
| – | – | Stable | CC(=O)NCSC[C@@H]1NC(=O)[C@H]([C@@H](C)O)NC(=O)[C@@H](NC(C)=O)CC(=O)NCCCC[C@@H](C(=O)N[C@@H](Cc2cnc[nH]2)C(N)=O)NC(=O)[C@H](CCCNC(=N)N)NC(=O)[C@H](Cc2cccc3ccccc23)NC(=O)[C@H]([C@@H](C)O)NC(=O)[C@H](CCC(N)=O)NC(=O)[C@H](CCCNC(=N)N)NC1=O (Ac-DTC(Acm)RQT[1Nal]RKH-NH2; lactam 1-9) |
| ~90 µM | – | – | COc1cc(/C=C/C(=O)CC(=O)/C=C/c2ccc(O)c(OC)c2)ccc1O [CURCUMIN] |
